Measured values taken from US20120077854A1, “COMPOSITIONS AND METHODS FOR MODULATING RETINOL BINDING TO RETINOL BINDING PROTEIN 4 (RBP4)” (priority 2009, published 2012).

Target: RBP4 (Homo sapiens, UniProt P02753)
Test: HTRF competition assay: displacement of Cy5-labeled retinol from RBP4
Type: binding
Conditions: 10 nM biotin-labeled RBP4, streptavidin-Europium cryptate 1 nM, room temperature 30 min
Protocol: To determine the binding affinity of test compounds for RBP4, a homogeneous time resolved fluorescence (HTRF) assay was developed. The assay was a competition experiment measuring the interaction of RBP4 with the known RBP4 ligand retinol. Cy5-labeled retinol was incubated with 10 nM biotin-labeled RBP4 protein and streptavidin-Europium cryptate (1 nM). Test or control compounds were added to the reaction mixture and incubated at room temperature for 30 min. The HTRF signal was determined by monitoring the emission at 665 nm and […]. The ratio between the 665 nM signal and the […] signal was used to determine the binding of Cy5-retinol to RBP4. The ability of test or control compounds to displace Cy5-retinol from RBP4 was used to determine their potency for RBP4. […]

Row | SMILES | IC50
1 | O=C(O)Cc1coc(-c2cc(F)c(F)c(C(F)(F)F)c2)n1 [Example 29, 2-(2-(3,4-Difluoro-5-(trifluoromethyl)phenyl)oxazol-4-yl)acetic acid] | 263 nM
2 | FC(F)(F)c1cc(-c2nc(Cc3nn[nH]n3)cs2)ccc1Cl [Example 35, 5-[2-(4-Chloro-3-trifluoromethyl-phenyl)-thiazol-4-ylmethyl]-2H-tetrazole] | 196 nM
3 | COc1cc(-c2nc(CC(=O)O)co2)cc(C(F)(F)F)c1 [Example 15, 2-(2-(3-Methoxy-5-(trifluoromethyl)phenyl)oxazol-4-yl)acetic acid] | 248 nM
4 | COc1ccc(-c2nc(CC(=O)O)co2)cc1C(F)(F)F [Example 23, 2-(2-(4-Methoxy-3-(trifluoromethyl)phenyl)oxazol-4-yl)acetic acid] | 175 nM
5 | O=C(O)Cc1cc(-c2ccc(Cl)c(C(F)(F)F)c2)no1 [Example 25, 2-(3-(4-Chloro-3-(trifluoromethyl)phenyl)isoxazol-5-yl)acetic acid] | 285 nM
6 | O=C(O)Cc1csc(-c2ccc(F)c(C(F)(F)F)c2)n1 [Example 18, 2-(2-(4-Fluoro-3-(trifluoromethyl)phenyl)thiazol-4-yl)acetic acid] | 440 nM
7 | COC(=O)Cc1nc(-c2cc(C(F)(F)F)cc(C(F)(F)F)c2)no1 [Example 3, Methyl 2-(3-(3,5-bis(trifluoromethyl)phenyl)-1,2,4-oxadiazol-5-yl)acetate] | 3440 nM
8 | O=C(O)c1nc(-c2cc(C(F)(F)F)cc(C(F)(F)F)c2)cs1 [Example 33, 4-(3,5-Bis-trifluoromethyl-phenyl)-thiazole-2-carboxylic acid] | 1060 nM
9 | O=C(O)Cc1coc(-c2ccc(F)c(C(F)(F)F)c2)n1 [Example 24, 2-(2-(4-Fluoro-3-(trifluoromethyl)phenyl)oxazol-4-yl)acetic acid] | 721 nM
10 | O=C(O)Cc1coc(-c2cccc(C(F)(F)F)c2Cl)n1 [Example 22, 2-(2-(2-Chloro-3-(trifluoromethyl)phenyl)oxazol-4-yl)acetic acid] | 1660 nM
11 | O=C(O)Cc1coc(-c2cc(F)cc(C(F)(F)F)c2)n1 [Example 19, 2-(2-(3-Fluoro-5-(trifluoromethyl)phenyl)oxazol-4-yl)acetic acid] | 658 nM
12 | Cc1sc(CC(=O)O)nc1-c1cc(C(F)(F)F)cc(C(F)(F)F)c1 [Example 9, 2-(4-(3,5-Bis(trifluoromethyl)phenyl)-5-methylthiazol-2-yl)acetic acid] | 232 nM
13 | COc1ccc(-c2nc(CC(=O)O)cs2)cc1C(F)(F)F [Example 26, 2-(2-(4-Methoxy-3-(trifluoromethyl)phenyl)thiazol-4-yl)acetic acid] | 193 nM
14 | COC(=O)Cc1nc(-c2cc(C(F)(F)F)cc(C(F)(F)F)c2)co1 [Example 5, Methyl 2-(4-(3,5-bis(trifluoromethyl)phenyl)oxazol-2-yl)acetate] | 924 nM
15 | O=C(O)Cc1csc(-c2cccc(C(F)(F)F)c2Cl)n1 [Example 27, 2-(2-(2-Chloro-3-(trifluoromethyl)phenyl)thiazol-4-yl)acetic acid] | 2380 nM
16 | COC(=O)Cc1coc(-c2cc(C(F)(F)F)cc(C(F)(F)F)c2)n1 [Example 4, Methyl 2-(2-(3,5-bis(trifluoromethyl)phenyl)oxazol-4-yl)acetate] | 2850 nM
17 | Cc1oc(CC(=O)O)nc1-c1cc(C(F)(F)F)cc(C(F)(F)F)c1 [Example 11, 2-(4-(3,5-Bis(trifluoromethyl)phenyl)-5-methyloxazol-2-yl)acetic acid] | 1590 nM
18 | O=C(O)Cc1coc(-c2cc(Br)cc(C(F)(F)F)c2)n1 [Example 37, 2-(2-(3-Bromo-5-(trifluoromethyl)phenyl)oxazol-4-yl)acetic acid] | > 10000 nM
19 | COC(=O)Cc1csc(-c2cc(C(F)(F)F)cc(C(F)(F)F)c2)n1 [Example 1, Methyl 2-(2-(3,5-bis(trifluoromethyl)phenyl)thiazol-4-yl)acetate] | 2430 nM
20 | O=C(O)Cc1csc(-c2cc(C(F)(F)F)ccc2Cl)n1 [Example 21, 2-(2-(2-Chloro-5-(trifluoromethyl)phenyl)thiazol-4-yl)acetic acid] | 1050 nM
21 | O=C(O)Cc1coc(-c2cc(C(F)(F)F)ccc2Cl)n1 [Example 36, 2-(2-(2-Chloro-5-(trifluoromethyl)phenyl)oxazol-4-yl)acetic acid] | 8820 nM

These reach a lower IC50. Values come first.

Row | IC50 | SMILES
22 | 93 nM | O=C(O)Cc1coc(-c2cc(C(F)(F)F)cc(C(F)(F)F)c2)n1 [Example 6, 2-(2-(3,5-Bis(trifluoromethyl)phenyl)oxazol-4-yl) acetic acid]
23 | 73 nM | O=C(O)Cc1nc(-c2cc(F)cc(C(F)(F)F)c2)co1 [Example 12, 2-(4-(3-Fluoro-5-(trifluoromethyl)phenyl)oxazol-2-yl)acetic acid]
24 | 141 nM | O=C(O)C(O)c1csc(-c2cc(C(F)(F)F)cc(C(F)(F)F)c2)n1 (stereo not drawn) [Example 16, 2-(2-(3,5-Bis(trifluoromethyl)phenyl)thiazol-4-yl)-2-hydroxyacetic acid]
25 | 88 nM | O=C(O)Cc1csc(-c2cc(Cl)cc(C(F)(F)F)c2)n1 [Example 8, 2-(2-(3-Chloro-5-(trifluoromethyl)phenyl)thiazol-4-yl)acetic acid]
26 | 134 nM | O=C(O)Cc1csc(-c2cc(C(F)F)cc(C(F)(F)F)c2)n1 [Example 32, 2-(2-(3-(Difluoromethyl)-5-(trifluoromethyl)phenyl)thiazol-4-yl)acetic acid]
27 | 168 nM | O=C(O)Cc1csc(-c2cc(F)cc(C(F)(F)F)c2)n1 [Example 20, 2-(2-(3-Fluoro-5-(trifluoromethyl)phenyl)thiazol-4-yl)acetic acid]
28 | 31 nM | O=C(O)Cc1nc(-c2cc(C(F)(F)F)cc(C(F)(F)F)c2)co1 [Example 7, 2-(4-(3,5-Bis(trifluoromethyl)phenyl)oxazol-2-yl)acetic acid]
29 | 86 nM | O=C(O)Cc1csc(-c2cc(F)c(F)c(C(F)(F)F)c2)n1 [Example 30, 2-(2-(3,4-Difluoro-5-(trifluoromethyl)phenyl)thiazol-4-yl)acetic acid]
30 | 91 nM | O=C(O)Cc1nc(-c2cc(F)cc(C(F)(F)F)c2)cs1 [Example 13, 2-(4-(3-Fluoro-5-(trifluoromethyl)phenyl)thiazol-2-yl)acetic acid]
31 | 98 nM | FC(F)(F)c1cc(-c2nc(Cc3nn[nH]n3)cs2)cc(C(F)(F)F)c1 [Example 34, 5-[2-(3,5-Bis-trifluoromethyl-phenyl)-thiazol-4-ylmethyl]-2H-tetrazole]
32 | 88 nM | COc1cc(-c2nc(CC(=O)O)cs2)cc(C(F)(F)F)c1 [Example 14, 2-(2-(3-Methoxy-5-(trifluoromethyl)phenyl)thiazol-4-yl)acetic acid]
33 | 85 nM | O=C(O)Cc1csc(-c2cc(C(F)(F)F)cc(C(F)(F)F)c2)n1 [Example 2, 2-(2-(3,5-Bis(trifluoromethyl)phenyl)thiazol-4-yl)acetic acid]
34 | 86 nM | Cc1ccc(-c2nc(CC(=O)O)cs2)cc1C(F)(F)F [Example 17, 2-(2-(4-Methyl-3-(trifluoromethyl)phenyl)thiazol-4-yl)acetic acid]
35 | 63 nM | O=C(O)Cc1csc(-c2ccc(Cl)c(C(F)(F)F)c2)n1 [Example 10, 2-(2-(4-Chloro-3-(trifluoromethyl)phenyl)thiazol-4-yl)acetic acid]
36 | 50 nM | O=C(O)Cc1csc(-c2cc(Br)cc(C(F)(F)F)c2)n1 [Example 28, 2-(2-(3-Bromo-5-(trifluoromethyl)phenyl)thiazol-4-yl)acetic acid]
